Laboratory results taken from ChEMBL document CHEMBL1909046, “DrugMatrix in vitro pharmacology data”.

Legend:
[1] = target: Beta-1 adrenergic receptor (Homo sapiens, UniProt P08588); assay: DRUGMATRIX: Adrenergic beta1 radioligand binding (ligand: [125I] Cyanopindolol); format: cell membranes, CHO-K1, Membrane; details: cho-k1; Not Active = under 50% inhibition at 10 µM
[2] = DRUGMATRIX: Atrial Natriuretic Factor (ANF) radioligand binding (ligand: [125I] ANF (rat)); format: cell membranes, Cavia porcellus, Dunkin-Hartley, Adrenal gland, Membrane; details: Not Active = under 50% inhibition at 10 µM
[3] = DRUGMATRIX: Calcium Channel Type L, Benzothiazepine radioligand binding (ligand: [3H] Diltiazem); format: cell membranes, Rattus norvegicus, Wistar, Brain, Membrane; details: Not Active = under 50% inhibition at 10 µM
[4] = DRUGMATRIX: Calcium Channel Type L, Dihydropyridine radioligand binding (ligand: [3H] Nitrendipine); format: cell membranes, Rattus norvegicus, Wistar, Cerebral cortex, Membrane; details: Not Active = under 50% inhibition at 10 µM
[5] = DRUGMATRIX: GABAA, Flunitrazepam, Central radioligand binding (ligand: [3H] Flunitrazepam); format: cell membranes, Rattus norvegicus, Wistar, Brain, Membrane; details: Not Active = under 50% inhibition at 10 µM
[6] = DRUGMATRIX: Interleukin IL-1 radioligand binding (ligand: [125I] interleukin 1beta); format: cell membranes, Membrane; details: nih3t3; Not Active = under 50% inhibition at 10 µM
Cytochrome P450 2D6 = Cytochrome P450 2D6 (Homo sapiens, UniProt P10635); details: bti-tn-5b1-4; note: in other assays of this panel Not Active means under 50% inhibition at 10 µM
Chain of Cytochrome P450 2D6 (P10635 whole entry): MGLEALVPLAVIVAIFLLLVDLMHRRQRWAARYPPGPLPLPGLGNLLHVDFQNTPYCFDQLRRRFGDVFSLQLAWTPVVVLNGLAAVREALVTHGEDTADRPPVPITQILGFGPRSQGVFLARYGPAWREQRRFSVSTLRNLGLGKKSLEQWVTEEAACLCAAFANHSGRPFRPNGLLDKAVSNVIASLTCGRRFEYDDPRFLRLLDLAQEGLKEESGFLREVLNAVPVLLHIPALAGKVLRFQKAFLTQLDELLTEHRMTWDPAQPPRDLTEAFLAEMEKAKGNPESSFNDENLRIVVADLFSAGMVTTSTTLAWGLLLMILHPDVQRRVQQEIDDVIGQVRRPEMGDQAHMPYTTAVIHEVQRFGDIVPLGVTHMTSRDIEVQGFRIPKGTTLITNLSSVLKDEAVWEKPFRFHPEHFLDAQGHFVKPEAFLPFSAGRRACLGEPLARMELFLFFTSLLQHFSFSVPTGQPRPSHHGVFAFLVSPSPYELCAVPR

Chain of Beta-1 adrenergic receptor (P08588 whole entry): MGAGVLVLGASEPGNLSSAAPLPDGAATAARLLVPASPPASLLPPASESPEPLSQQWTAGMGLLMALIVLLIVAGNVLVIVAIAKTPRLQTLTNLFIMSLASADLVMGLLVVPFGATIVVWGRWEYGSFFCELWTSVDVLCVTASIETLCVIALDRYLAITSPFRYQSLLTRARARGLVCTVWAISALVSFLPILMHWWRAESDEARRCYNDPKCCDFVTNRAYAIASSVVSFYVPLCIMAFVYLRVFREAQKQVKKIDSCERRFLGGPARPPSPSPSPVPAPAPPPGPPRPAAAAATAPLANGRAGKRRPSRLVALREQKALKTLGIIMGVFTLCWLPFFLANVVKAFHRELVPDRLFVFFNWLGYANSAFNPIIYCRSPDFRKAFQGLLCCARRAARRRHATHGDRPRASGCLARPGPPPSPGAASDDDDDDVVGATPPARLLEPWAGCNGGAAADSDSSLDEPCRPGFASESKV

Cc1ccc(C(=O)c2ccc(CC(=O)O)n2C)cc1 [TOLMETIN]
Not Active: IC50 [1] | IC50 [2] | Ki [2] | IC50 [3] | Ki [3] | IC50 [4] | Ki [4] | IC50 [5] | Ki [5] | IC50 [6] | Ki [6] | IC50 (Cytochrome P450 2D6) | Ki (Cytochrome P450 2D6)

CC(=O)OCC(COC(C)=O)OC(C)=O [TRIACETIN]
Not Active: IC50 [1] | IC50 [2] | Ki [2] | IC50 [3] | Ki [3] | IC50 [4] | Ki [4] | IC50 [5] | Ki [5] | IC50 [6] | Ki [6] | IC50 (Cytochrome P450 2D6) | Ki (Cytochrome P450 2D6)

TRANSPLATIN
Not Active: IC50 [1] | Ki [1] | IC50 [2] | Ki [2] | IC50 [3] | Ki [3] | IC50 [4] | Ki [4] | IC50 [5] | Ki [5] | IC50 [6] | Ki [6] | IC50 (Cytochrome P450 2D6) | Ki (Cytochrome P450 2D6)

ZIRCONIUM(IV) CHLORIDE
Not Active: IC50 [1] | Ki [1] | IC50 [2] | Ki [2] | IC50 [3] | Ki [3] | IC50 [4] | Ki [4] | IC50 [5] | Ki [5] | IC50 [6] | Ki [6] | IC50 (Cytochrome P450 2D6) | Ki (Cytochrome P450 2D6)
